# Results: patent US20200190151A1, “KV1.3-BLOCKING VENOM PEPTIDE VARIANTS AND RELATED USES” (The Scripps Research Institute, priority 2016, published 2020)
# “Also recorded” adds a separate entry of the source. Read-outs that look alike come from different tables or passages of the source.
# Assays:
# Kv1.3 channel [1] = type: cell-based, human
# Kv1.3 channel [2] = biological target: T1, Kv1.3 channel (Homo sapiens, UniProt P22001); test: Whole-cell patch clamp electrophysiology, HEK293 Kv1.3 stable cells; type: cell-based
# T1 construct: expressed in transfected cells
# Experimental: (§1) The variegated region of each variant was extracted based on the known flanking sequences. The ratio between number of unique toxins and count of all reads represented the diversity of a selected library. Highly enriched variants versus those that were not enriched were chosen and their affinity to Kv1.3 were assessed and ranked. In general, the enrichment factor of a variant is positively correlated with its affinity to Kv1.3 (FIG. 4). […] To test the critical property of specificity, patch clamp analysis of S1-2 was also carried out on HEK293 cells expressing other Kv1 family members including Kv1.1 through Kv1.7 and the hERG channel.
# (§2) Electrophysiology recording: HEKA EPC 10 USB patch clamp amplifier (from HEKA Elektronik, Germany) was used for the whole cell recording. A cover slip with abundant single HEK293 Kv1.3 stable cells on the surface was removed and placed into a continuously perfused (approximately 1-2 ml/minute) recording chamber mounted on an inverted microscope. The Kv1.3 current was recorded from single cell using standard whole cell recording techniques. The cell was voltage clamped at a holding potential of −80 mV. Outward potassium currents were measured using the whole-cell configuration of the patch clamp technique at a test potential of 40 mV from a holding potential of −80 mV. Current records were acquired at 2-5 KHz and filtered at 1-2 KHz. […]
# Kv1.6 = biological target: T2, Kv1.6 (Homo sapiens, UniProt P17658); test: Patch clamp on HEK293 cells expressing Kv1.6; type: cell-based
# T2 construct: expressed in transfected cells; host or cells: HEK293
# Experimental: as §1, §2
# Kv1.1 = biological target: T3, Kv1.1 (Homo sapiens, UniProt Q09470); test: Patch clamp on HEK293 cells expressing Kv1.1; type: cell-based
# T3 construct: expressed in transfected cells; host or cells: HEK293
# Experimental: as §1, §2
# [3] = lentivirus encoding membrane tethered peptide
# Chain of Kv1.3 channel (P22001 53-575 limits assumed): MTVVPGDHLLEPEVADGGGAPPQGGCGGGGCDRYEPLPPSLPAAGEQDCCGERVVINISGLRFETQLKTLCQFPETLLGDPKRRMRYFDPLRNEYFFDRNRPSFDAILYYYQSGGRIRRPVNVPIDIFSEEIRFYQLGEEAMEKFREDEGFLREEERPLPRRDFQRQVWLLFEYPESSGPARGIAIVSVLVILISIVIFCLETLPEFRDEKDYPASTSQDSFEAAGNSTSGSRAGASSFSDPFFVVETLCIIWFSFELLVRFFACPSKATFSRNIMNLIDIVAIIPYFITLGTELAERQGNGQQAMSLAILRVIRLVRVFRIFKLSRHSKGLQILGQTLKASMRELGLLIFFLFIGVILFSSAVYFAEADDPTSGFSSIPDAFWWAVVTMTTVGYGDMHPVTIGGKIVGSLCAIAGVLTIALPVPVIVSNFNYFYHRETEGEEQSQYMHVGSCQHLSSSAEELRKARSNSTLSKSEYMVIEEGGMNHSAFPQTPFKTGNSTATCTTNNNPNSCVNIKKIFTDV
# T1 sequence (P22001 whole entry): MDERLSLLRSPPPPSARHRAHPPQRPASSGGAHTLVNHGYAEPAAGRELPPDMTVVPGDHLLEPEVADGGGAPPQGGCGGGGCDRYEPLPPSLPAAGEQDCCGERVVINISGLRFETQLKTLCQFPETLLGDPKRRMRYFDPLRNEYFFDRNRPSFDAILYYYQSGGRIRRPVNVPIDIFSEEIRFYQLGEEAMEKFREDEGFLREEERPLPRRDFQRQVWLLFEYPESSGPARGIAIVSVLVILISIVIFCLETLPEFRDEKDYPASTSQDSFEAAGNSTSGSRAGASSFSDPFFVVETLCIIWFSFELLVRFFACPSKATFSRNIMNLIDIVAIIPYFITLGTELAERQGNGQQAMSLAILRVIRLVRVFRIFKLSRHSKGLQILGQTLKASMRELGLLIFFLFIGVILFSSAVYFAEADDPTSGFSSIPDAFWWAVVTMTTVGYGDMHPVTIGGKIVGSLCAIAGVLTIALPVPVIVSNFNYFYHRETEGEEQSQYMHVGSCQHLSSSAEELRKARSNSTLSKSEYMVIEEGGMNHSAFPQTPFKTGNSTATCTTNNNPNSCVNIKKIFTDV
# T3 sequence (Q09470 whole entry): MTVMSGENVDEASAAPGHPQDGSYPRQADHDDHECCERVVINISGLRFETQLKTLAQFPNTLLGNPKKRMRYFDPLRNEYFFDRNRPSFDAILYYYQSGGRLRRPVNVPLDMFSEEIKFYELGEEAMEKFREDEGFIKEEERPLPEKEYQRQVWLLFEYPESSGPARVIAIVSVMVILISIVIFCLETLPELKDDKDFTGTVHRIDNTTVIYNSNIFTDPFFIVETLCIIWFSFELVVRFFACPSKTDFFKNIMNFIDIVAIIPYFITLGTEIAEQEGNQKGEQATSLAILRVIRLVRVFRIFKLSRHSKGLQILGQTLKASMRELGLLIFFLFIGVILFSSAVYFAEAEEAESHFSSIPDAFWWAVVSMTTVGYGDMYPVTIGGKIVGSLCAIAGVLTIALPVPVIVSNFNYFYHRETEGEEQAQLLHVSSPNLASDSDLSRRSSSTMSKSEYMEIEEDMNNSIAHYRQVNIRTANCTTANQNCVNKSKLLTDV
# T2 sequence (P17658 whole entry): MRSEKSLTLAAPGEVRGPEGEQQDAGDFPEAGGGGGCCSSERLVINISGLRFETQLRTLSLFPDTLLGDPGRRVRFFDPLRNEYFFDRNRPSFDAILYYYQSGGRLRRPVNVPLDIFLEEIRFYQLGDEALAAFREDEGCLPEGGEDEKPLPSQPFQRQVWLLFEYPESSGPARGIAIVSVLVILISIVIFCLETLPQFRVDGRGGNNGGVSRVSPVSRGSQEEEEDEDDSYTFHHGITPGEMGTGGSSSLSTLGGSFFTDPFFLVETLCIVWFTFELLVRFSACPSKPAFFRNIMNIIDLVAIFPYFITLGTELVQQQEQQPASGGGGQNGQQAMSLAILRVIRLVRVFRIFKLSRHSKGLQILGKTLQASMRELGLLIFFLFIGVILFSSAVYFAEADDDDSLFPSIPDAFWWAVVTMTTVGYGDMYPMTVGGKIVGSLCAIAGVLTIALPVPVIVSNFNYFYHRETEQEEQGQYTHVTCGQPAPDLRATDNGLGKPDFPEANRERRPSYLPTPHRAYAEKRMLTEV
substance,measurement,setting,value
Anuroctoxin,"Activation of tdTomato reporter in Kv1.3 reporter cells, in words",Kv1.3 channel [1]; [3],stimulated the Kv1.3 reporter cells to express tdTomato fluorescent protein
CllTx1 (ITINVKCTSPQQCLRPCKDRFGQHAGGKCINGKCKCYP),"Block / inhibition of Kv1.3 channel, in words",Kv1.3 channel [2],strongly blocked; also recorded: potently blocked
"Exendin-4: GLP-1 receptor targeting peptide, negative control lentivirus","Activation of tdTomato reporter in Kv1.3 reporter cells, in words",Kv1.3 channel [1]; [3],no activity
ShK,"Effect on Kv1.6, in words",Kv1.6,comparable inhibition
same,"Block / inhibition of Kv1.3 channel, in words",Kv1.3 channel [2],comparable inhibition
same,"Activation of tdTomato reporter in Kv1.3 reporter cells, in words",Kv1.3 channel [1]; [3],stimulated the Kv1.3 reporter cells to express tdTomato fluorescent protein
same,"Effect on Kv1.1, in words",Kv1.1,comparable inhibition
Vc1.1,"Activation of tdTomato reporter in Kv1.3 reporter cells, in words",Kv1.3 channel [1],no activity
